Measured values as given in patent US12077503B2, “Substituted cyclic amides and their use as herbicides” (FMC CORPORATION, priority 2015, dated 2024).

Columns and labels:
Assay type in all cases: in vivo
[1] = system: barnyardgrass (Echinochloa crus-galli); assay: Test A preemergence; conditions: Echinochloa crus-galli, pre-emergence, 240 h, Preemergence
In short: (§1)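 In a loam soil and sand blend, planted seeds got a preemergence directed soil spray, and young plants at the one- to two-leaf stage, 2–10 cm high, got a postemergence application; ~10 d greenhouse hold; injury rated visually, 0 = none, 100 = complete control.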

[2] = system: ryegrass, Italian (Italian ryegrass, Lolium multiflorum); assay: Test A preemergence; conditions: Lolium multiflorum, pre-emergence, 240 h, Preemergence
In short: as §1

[3] = system: ragweed (common ragweed, Ambrosia elatior); assay: Test A preemergence; conditions: Ambrosia artemisiifolia, pre-emergence, 240 h, Preemergence
In short: as §1

[4] = system: pigweed (Amaranthus retroflexus); assay: Test A preemergence; conditions: Amaranthus retroflexus, pre-emergence, 240 h, Preemergence
[5] = system: Kochia (Kochia scoparia); assay: Test A preemergence; conditions: Bassia scoparia, pre-emergence, 240 h, Preemergence
In short: as §1

[6] = system: giant foxtail (Setaria faberii); assay: Test A preemergence; conditions: Setaria faberi, pre-emergence, 240 h, Preemergence
In short: as §1

[7] = system: barnyardgrass (Echinochloa crus-galli); assay: Test B flooded paddy test; conditions: Echinochloa crus-galli, 360 h, Flood, 250 g ai/ha; visually evaluated after 13 to 15 d; read-out: Plant response rating, Barnyardgrass (0 to 100 scale where 0 is no effect and 100 is complete control)
In short: (§2)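 Plants at 2-leaf stage flooded to 3 cm above soil, with compounds applied directly to paddy water and that depth maintained. Plants kept in greenhouse 13–15 d. Visual rating versus controls on a 0 (no effect) to 100 (complete control) scale.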

[8] = system: sedge, umbrella (small-flower umbrella sedge, Cyperus difformis); assay: Test B flooded paddy test; conditions: Cyperus difformis, 360 h, Flood, 250 g ai/ha; visually evaluated after 13 to 15 d; read-out: Plant response rating, Sedge, Umbrella (0 to 100 scale where 0 is no effect and 100 is complete control)
In short: as §2

[9] = system: rice (Oryra sativa); assay: Test B flooded paddy test; conditions: Oryza sativa, 360 h, Flood, 250 g ai/ha; visually evaluated after 13 to 15 d; read-out: Plant response rating, Rice (0 to 100 scale where 0 is no effect and 100 is complete control)
In short: as §2

[10] = system: ducksalad (Heteranthera limosa); assay: Test B flooded paddy test; conditions: Heteranthera limosa, 360 h, Flood, 250 g ai/ha; visually evaluated after 13 to 15 d; read-out: Plant response rating, Ducksalad (0 to 100 scale where 0 is no effect and 100 is complete control)
In short: as §2

[11] = system: barnyardgrass (Echinochloa crus-galli); assay: Test A postemergence; conditions: Echinochloa crus-galli, post-emergence, 240 h, Postemergence
In short: as §1

[12] = system: blackgrass (Alopecurus myosuroides); assay: Test A postemergence; conditions: Alopecurus myosuroides, post-emergence, 240 h, Postemergence, read-out: Blackgrass plant response rating (0 to 100 scale)
In short: as §1

[13] = system: ryegrass, Italian (Italian ryegrass, Lolium multiflorum); assay: Test A postemergence; conditions: Lolium multiflorum, post-emergence, 240 h, Postemergence, read-out: Ryegrass, Italian plant response rating (0 to 100 scale)
In short: as §1

[14] = system: ragweed (common ragweed, Ambrosia elatior); assay: Test A postemergence; conditions: Ambrosia artemisiifolia, post-emergence, 240 h, Postemergence, read-out: Ragweed plant response rating (0 to 100 scale)
In short: as §1

[15] = system: pigweed (Amaranthus retroflexus); assay: Test A postemergence; conditions: Amaranthus retroflexus, post-emergence, 240 h, Postemergence, read-out: Pigweed plant response rating (0 to 100 scale)
In short: as §1

[16] = system: Kochia (Kochia scoparia); assay: Test A postemergence; conditions: Bassia scoparia, post-emergence, 240 h, Postemergence, read-out: Kochia plant response rating (0 to 100 scale)
In short: as §1

[17] = system: giant foxtail (Setaria faberii); assay: Test A postemergence; conditions: Setaria faberi, post-emergence, 240 h, Postemergence, read-out: Foxtail, Giant plant response rating (0 to 100 scale)
In short: as §1

[18] = system: wheat (Triticum aestivum); assay: Test A postemergence; conditions: Triticum aestivum, post-emergence, 240 h, Postemergence, read-out: Wheat plant response rating (0 to 100 scale)
In short: as §1

[19] = system: corn (Zea mays); assay: Test A postemergence; conditions: Zea mays, post-emergence, 240 h, Postemergence, read-out: Corn plant response rating (0 to 100 scale)
In short: as §1

[20] = 125 g ai/ha, visual rating about 10 d after treatment
[21] = 31 g ai/ha, 0 is no effect, 100 is complete control

CN1C[C@H](c2ccc3c(c2)OC(F)(F)O3)[C@@H](C(=O)Nc2ccccc2C(F)(F)F)C1=O [Compound 1352]
pest or weed control at 31 g/ha ([1]; 31 g ai/ha, 0 to 100 scale where 0 is no effect and 100 is complete control, read-out: Barnyardgrass plant response rating): 80%
pest or weed control at 125 g/ha ([1]; 125 g ai/ha, 0 to 100 scale (0 no effect, 100 complete control), read-out: Plant response rating, Barnyardgrass): 90%
pest or weed control at 31 g/ha ([2]; 31 g ai/ha, 0 to 100 scale where 0 is no effect and 100 is complete control, read-out: Ryegrass, Italian plant response rating): 0%
pest or weed control at 125 g/ha ([2]; 125 g ai/ha, 0 to 100 scale (0 no effect, 100 complete control), read-out: Plant response rating, Ryegrass, Italian): 40%
pest or weed control at 31 g/ha ([3]; 31 g ai/ha, 0 to 100 scale where 0 is no effect and 100 is complete control, read-out: Ragweed plant response rating): 0%
pest or weed control at 125 g/ha ([3]; 125 g ai/ha, 0 to 100 scale (0 no effect, 100 complete control), read-out: Plant response rating, Ragweed): 30%
pest or weed control at 31 g/ha ([4]; 31 g ai/ha, 0 to 100 scale where 0 is no effect and 100 is complete control, read-out: Pigweed plant response rating): 0%
pest or weed control at 125 g/ha ([4]; 125 g ai/ha, 0 to 100 scale (0 no effect, 100 complete control), read-out: Plant response rating, Pigweed): 80%
pest or weed control at 31 g/ha ([5]; 31 g ai/ha, 0 to 100 scale where 0 is no effect and 100 is complete control, read-out: Kochia plant response rating): 20%
pest or weed control at 125 g/ha ([5]; 125 g ai/ha, 0 to 100 scale (0 no effect, 100 complete control), read-out: Plant response rating, Kochia): 60%
pest or weed control at 31 g/ha ([6]; 31 g ai/ha, 0 to 100 scale where 0 is no effect and 100 is complete control, read-out: Foxtail, Giant plant response rating): 100%
pest or weed control at 125 g/ha ([6]; 125 g ai/ha, 0 to 100 scale (0 no effect, 100 complete control), read-out: Plant response rating, Foxtail, Giant): 100%
pest or weed control at 250 g/ha [7]: 60%
pest or weed control at 250 g/ha [8]: 0%
pest or weed control at 250 g/ha [9]: 0%
pest or weed control at 250 g/ha [10]: 70%
pest or weed control at 125 g/ha ([11]; 125 g ai/ha, visual rating about 10 d after treatment, read-out: Barnyardgrass plant response rating (0 to 100 scale, 0 no effect, 100 complete control)): 60%
pest or weed control at 31 g/ha ([11]; 31 g ai/ha, 0 is no effect, 100 is complete control, read-out: Barnyardgrass plant response rating (0 to 100 scale)): 60%
pest or weed control at 125 g/ha [12, 20]: 30%
pest or weed control at 31 g/ha [12, 21]: 0%
pest or weed control at 125 g/ha [13, 20]: 0%
pest or weed control at 31 g/ha [13, 21]: 0%
pest or weed control at 125 g/ha [14, 20]: 0%
pest or weed control at 31 g/ha [14, 21]: 0%
pest or weed control at 125 g/ha [15, 20]: 0%
pest or weed control at 31 g/ha [15, 21]: 0%
pest or weed control at 125 g/ha [16, 20]: 0%
pest or weed control at 31 g/ha [16, 21]: 0%
pest or weed control at 125 g/ha [17, 20]: 80%
pest or weed control at 31 g/ha [17, 21]: 60%
plant injury at 125 g/ha [18, 20]: 20%
plant injury at 31 g/ha [18, 21]: 0%
plant injury at 125 g/ha [19, 20]: 0%
plant injury at 31 g/ha [19, 21]: 0%
